Reference: patent US20090068125A1, “TREATMENT FOR MUCOSITIS” (HEPTAGEN LTD, priority 2005, published 2009)
pEC50: −log10 of the molar value.

Legend:
[1] = cited from earlier work
[2] = tested on: human epidermal keratinocytes (HEK); assay: Inhibition of human epidermal keratinocyte proliferation (AlamarBlue reduction); type: cell-based; conditions: two typical experiments (FIG. 1), 0.1 to 100 microM adenosine, 2 days incubation, AlamarBlue fluorescence
Text: Cryopreserved human epidermal keratinocytes (HEK) isolated from skin were obtained from TCS Cellworks, Botolph Claydon, Buckingham, MK18 2LR, UK. Cells were maintained in EpiLife, a defined basal medium designed for human keratinocytes supplemented with selected hormones and growth factors (TCS Cellworks). […] Proliferating cultures were trypsinised, harvested, treated with a trypsin inhibitor and resuspended in growth medium. The viable cells were counted then replated into 24 or 96 well cell culture plates at a density of approximately 2,500 cells/cm2. Cells were incubated overnight at 37° C. at 5% CO2 to allow recovery, the spent medium aspirated from the wells and replaced with fresh growth medium in the presence or absence of adenosine. Adenosine was obtained from Sigma-Aldrich and made up as a 10 mM stock solution in DMSO. Serial dilutions were made in the growth medium and added to the cells to give final concentrations ranging from 0.1 to 100 microM, and the cells returned to the incubator for 2 days. AlamarBlue 2% v/v was added to the wells and reduction measured fluorometrically using a Molecular Dynamics BioLumin 9600 microtitre plate reader using excitation wavelength at 530 nm and […] wavelength at 590 nm. Control experiments in which compounds were not added were carried out to examine the normal time-scale of proliferation. […]

For `Nc1ncnc2c1ncn2[C@@H]1O[C@H](CO)[C@@H](O)[C@H]1O` [Adenosine], the “half-life in the circulation” value [1] is given as less than 10 s, the pEC50 ([2]; Homo sapiens, Keratinocyte, 48 h) is given as 5.77 and the pEC50 [2] is given as 5.96.
